Assay results from paper PMC4230215, “Lipolytic Potential of Aspergillus japonicus LAB01: Production, Partial Purification, and Characterisation of an Extracellular Lipase” (BioMed Research International, 2014).

Test system: T1, extracellular lipase from A. japonicus LAB01
T1 construct: about 25 kDa on SDS-PAGE
Assay: spectrophotometric p-nitrophenol release at […] nm, Michaelis-Menten hyperbola regression
Type: biochemical, Aspergillus japonicus
Settings: Tris-HCl pH 8.0, 37 °C, Triton X-100 and gum arabic emulsion, 2-propanol; 0-1.4 mM substrate; partially purified enzyme; read-out: apparent KM

CCCCCCCCCCCCCCCC(=O)Oc1ccc([N+](=O)[O-])cc1 [p-NPP, p-nitrophenyl palmitate]
Km: 130 µM
